Laboratory results from patent US5616557A, “Process for selectively inhibiting activity of endotoxin” (Wako Pure Chemical Industries, Ltd., priority 1993, dated 1997).

System: E. coli 0128:B12 LPS
Experiment: Limulus test of ET spiked plasma, Example 4
Format: biochemical
Conditions: 0.009 w/v % of Px B alone; ET 2 ng/ml, 80° C. 5 minutes (FIG. 4)
Description: To 0.1 ml of the LAL solution was added 0.1 ml of the aforesaid diluted plasma, and stirred, after which a time required for reducing the transmittance of the resulting mixture by 5% (hereinafter abbreviated as "Tg") was measured while maintaining the temperature at 37° C. The ET concentration in the diluted plasma was determined on the basis of the thus obtained Tg value by use of a calibration curve showing the relationship between ET concentration and Tg which had been previously obtained by carrying out the same measurement as described above except for using ET solutions having various known concentrations in place of the samples.
To 1.3 ml of normal human heparinized plasma was added 13 μl of ET solution having a predetermined concentration, and 100 μl of the resulting ET spiked plasma was diluted 10 times with 900 μl of distilled water for injection, each of aqueous surfactant solutions having predetermined concentrations, each of aqueous Px B solutions having predetermined concentrations, or each of aqueous Px B solutions having predetermined concentrations and containing 0.1 w/v % or 0.2 w/v % of the surfactant (polyoxyethylene glycol p-t-octylphenyl ether), respectively. […] The ET concentration in the diluted plasma thus obtained was measured in the same manner as in Example 1.

Substance: polymyxin B [Px B]
- ET activity in plasma: completely inhibited
